Experimental data as given in paper PMC12583774 (Nature Communications, 2025).

What was measured:
[1] = test system: SARS-CoV-2 strain (Wuhan-Hu-1); assay: microbe, parasite or virus in culture; type: cell-based; conditions: Severe acute respiratory syndrome coronavirus 2, A549-ACE2, 24 h
[2] = test system: SARS-CoV-2 nCoV-SH01 strain; set-up: species or system K18-hACE2 transgenic mice; conditions: mouse, in vivo

CCC(CC)COC(=O)[C@H](C)N[P@](=O)(OC[C@H]1O[C@@](C#N)(c2ccc3c(N)ncnn23)[C@H](O)[C@@H]1O)Oc1ccccc1 [remdesivir]
EC50 [1]: 0.06 µM
SARS-CoV-2 N protein antigen staining in lungs (IHC) [2]: significantly reduced viral antigen staining
lung pathological features (H&E) [2]: markedly alleviated
